Test results taken from patent US6500810B2, “Method of regulating expression of adhesion molecules on circulating leukocytes” (Sky High, LLC, priority 1999, dated 2002).

Test system: CD18
Experiment: Flow cytometry of CD18 on isolated rat neutrophils stimulated with LTB4
Type: cell-based
Conditions: in vitro
Method: Flow cytometric analysis of CD18 complex in rat neutrophils was performed according to standard procedures as described in Vedder & Harlan, J. Clin. Invest., 81:676-682 (1988). Rat neutrophils were freshly isolated from rat whole blood according to the method of Williams et al., J. Leukocyte Biol., 42:455-462 (1987). Isolated neutrophils were washed twice in calcium-free Tyrode's solution containing 0.2% bovine serum albumin (BSA) and suspended in RPMI1630 medium. Neutrophils (5×10^5 cells/tube) were incubated with a monoclonal antibody directed against CD18 (Endogen, Boston, Mass.) at 4° C. for 30 minutes. Excess primary antibody was then removed by washing the platelets or neutrophils in RPMI1630. A goat anti-human gig F(AB′)2 FITC conjugate was used as the secondary antibody at a 1:100 dilution (4° C. for 30 minutes). The stained neutrophils were washed twice with RPMI1630 and finally fixed in 1% paraformaldehyde, and then analyzed by flow cytometry (FACScan, Becton-Dickinson, San Jose, Calif.).

CCCCCCCC/C=C\CCCCCCCC(=O)OCC(COP(O)(O)=S)OC (racemic) [LXR-1035, rac-1-thiophosphate-2-O-methyl-3-oleioyl-glycerol]
cell surface expression of the adhesion molecule CD18: inhibits
